According to patent US8664201B2 (priority 2008, dated 2014):
“And” between values parts separate entries of the source, which are not always exact repeats. Identical values can stand only once. Like-named read-outs stand apart in the source and are kept apart here.

How the values were obtained:
P388/CPA = format: in vivo, mice
L1210/0 = format: in vivo, mice
L1210/CPA = format: in vivo, mice
P388/0 = format: in vivo, mice
B16 Melanoma = tested on: B16 Melanoma; set-up: species or system mice; conditions: mouse, in vivo
human lox-IMVI melanoma = format: in vivo, mice; conditions: 40 mg/kg/dose IV, Q1DX5
Lewis Lung Carcinoma = tested on: Lewis Lung Carcinoma; set-up: species or system mice; conditions: mouse, in vivo
[1] = tested on: human MX-1 mammary tumors; format: in vivo, mice; conditions: 60 mg/kg IP, Q 1dx 5 day 12
16/C Mammary Tumor = format: in vivo, mice

O=P1(N(CCCl)CCCl)NCCCO1 (stereo not shown) [Cyclophosphamide, cyclophosphamide]
% ILS (dying mice only) (P388/CPA; 175 mg/kg IP, day 1 only): +35%
Day 60 survivors/total (P388/CPA; 175 mg/kg IP, day 1 only): 0/10
Net log10 reduction in tumor burden after therapy (P388/CPA; 175 mg/kg IP, day 1 only): 3
% ILS (dying mice only) (P388/CPA; 265 mg/kg IP, day 1 only): +35%
Day 60 survivors/total (P388/CPA; 265 mg/kg IP, day 1 only): 0/10
Net log10 reduction in tumor burden after therapy (P388/CPA; 265 mg/kg IP, day 1 only): 3
% ILS (dying mice only) (L1210/0; 200 mg/kg IP, day 2 only): +107%
Day 60 survivors/total (L1210/0; 200 mg/kg IP, day 2 only): 0/10
Net log10 reduction in tumor burden after therapy (L1210/0; 200 mg/kg IP, day 2 only): 7
% ILS (dying mice only) (L1210/CPA; 200 mg/kg IP, day 2 only): +57%
Day 60 survivors/total (L1210/CPA; 200 mg/kg IP, day 2 only): 0/10
Net log10 reduction in tumor burden after therapy (L1210/CPA; 200 mg/kg IP, day 2 only): 4
% ILS (dying mice only) (P388/0; 175 mg/kg IP, day 1 only): +130%
Day 60 survivors/total (P388/0; 175 mg/kg IP, day 1 only): 4/10
Net log10 reduction in tumor burden after therapy (P388/0; 175 mg/kg IP, day 1 only): 7
% ILS (dying mice only) (P388/0; 265 mg/kg IP, day 1 only): +280%
Day 60 survivors/total (P388/0; 265 mg/kg IP, day 1 only): 7/10
Net log10 reduction in tumor burden after therapy (P388/0; 265 mg/kg IP, day 1 only): 7
% ILS (B16 Melanoma): 68%
T-C (B16 Melanoma): 27 days
Tumor-free survivors (B16 Melanoma): 5/10
% ILS (human lox-IMVI melanoma): +121%
Median Day of Death (human lox-IMVI melanoma): 42.0
% ILS (Lewis Lung Carcinoma): 68%
Log kill total (Lewis Lung Carcinoma): >6.8
T-C (tumor growth delay) (Lewis Lung Carcinoma): 27 days
Tumor-free survivors (Lewis Lung Carcinoma): 5/10
Days Delay (T-C) [1]: >40.5 days
Days to 2 Doublings [1]: >48.0 days
Days Delay (T-C) (16/C Mammary Tumor; 30 mg/kg IP, Q 1dx 4 day 7): 0.4 days
Days to 2 Doublings (16/C Mammary Tumor; 30 mg/kg IP, Q 1dx 4 day 7): 3.6 days
Days Delay (T-C) (16/C Mammary Tumor; 40 mg/kg IP, Q 1dx 4 day 7): 1.2 days
Days to 2 Doublings (16/C Mammary Tumor; 40 mg/kg IP, Q 1dx 4 day 7): 4.4 days
Days Delay (T-C) (16/C Mammary Tumor; 50 mg/kg IP, Q 1dx 4 day 7): 4.0 days
Days to 2 Doublings (16/C Mammary Tumor; 50 mg/kg IP, Q 1dx 4 day 7): 7.2 days
Days Delay (T-C) (16/C Mammary Tumor; 60 mg/kg IP, Q 1dx 4 day 7): 4.5 days
Days to 2 Doublings (16/C Mammary Tumor; 60 mg/kg IP, Q 1dx 4 day 7): 7.7 days

O=P1(NCCCl)OCCCN1CCCl (stereo not shown) [Ifosfamide, ifosfamide]
Day 60 survivors/total (P388/CPA; mouse, in vivo): 0/10
Net log10 reduction in tumor burden after therapy (P388/CPA; mouse, in vivo): 4
Day 60 survivors/total (L1210/0; mouse, in vivo): 0/10 and 0/9
Net log10 reduction in tumor burden after therapy (L1210/0; mouse, in vivo): 8
Day 60 survivors/total (L1210/CPA; mouse, in vivo): 0/10
Day 60 survivors/total (P388/0; mouse, in vivo): 7/10
Net log10 reduction in tumor burden after therapy (P388/0; mouse, in vivo): 7
% ILS (B16 Melanoma): 55%
T-C (B16 Melanoma): 18 days
Tumor-free survivors (B16 Melanoma): 7/10
% ILS (Lewis Lung Carcinoma): 55%
Log kill total (Lewis Lung Carcinoma): >4.5
T-C (tumor growth delay) (Lewis Lung Carcinoma): 18 days
Tumor-free survivors (Lewis Lung Carcinoma): 7/10
Days to 2 Doublings (16/C Mammary Tumor; mouse, in vivo): 4.6 days and 4.9 days and 3.8 days and 4.0 days
